{
  "source": "patent US20100204129A1",
  "about": "“USE OF A PEPTIDE AS A THERAPEUTIC AGENT” (priority 2008, published 2010)",
  "key": {"[1]": {"system": "hepatitis B virus (HBV) ayw strain", "assay": "HBV assay, secreted HBV DNA by TaqMan PCR in HepG2-2.2.15", "details": "peptide 10 micrograms per ml; six days; HBV DNA in supernatant"}, "RAW 264.7 cells": {"system": "RAW 264.7 cells", "assay": "Phagocytosis assay (Fluorescein-labeled Escherichia coli, flow cytometry)", "format": "cell-based, mouse", "details": "peptide 10 micrograms per ml, 30 min preincubation, 60 min ingestion", "method": "RAW 264.7 (Mouse leukaemic monocyte macrophage cell line) cells were obtained from ATCC and grown in RPMI 1640 medium containing 10% FBS. Cells were incubated in 12×75 mm tubes at 37° C. with test peptide—10 micrograms per ml—for 30 min prior to adding Fluorescein-labeled Escherichia coli bacteria as the agent to be ingested. After the cells were incubated for additional 60 min at 37° C. and allowed to ingest the Fluorescein-labeled Escherichia coli bacteria, cells were fixed with 1% paraformaldehyde. The samples were then analyzed by flow cytometry to determine the amount of phagocytosis as a function of brightness (the greater the phagocytic activity, the more fluorescence in the macrophage population). Data are reported as % positive and the mean fluorescence intensity (MFI) of positively stained cells."}, "[2]": {"system": "Primary Human endothelial cells (HUVEC)", "assay": "Endothelial cell migration assay", "format": "cell-based", "details": "peptide 10 micrograms per ml, 22 hours", "method": "Endothelial cell migration is a prerequisite for the process of neo-vascularization or angiogenesis which is crucial for on-site recruitment of blood vessel formation. Primary Human endothelial cells (HUVEC) were seeded in insert chambers with 3 micrometer pore size of multi-transwell plate for 6 hours at 37° C. in Endothelial Cell Basal Medium (EBM) supplemented with 0.1% bovine serum albumin. Thereafter, designated concentration of test peptide—10 micrograms per ml—was added in duplicate wells. The endothelia were allowed to migrate for 22 hours at 37° C., then, migrated cells were fixed and stained with Hoechst 33342 dye. Images of 3 fields per insert were taken and the number of migrated cells per field were quantified using the ImageProPlus software. Data were analyzed for the average number of the migrated cells and standard deviation of six data points for each treatment condition. Active test peptide against HUVEC migration was determined based on 50% inhibition of migrated cells as compared with the control. Statistic p values were computed using the Student's t-test."}, "spleen cells": {"system": "spleen cells", "assay": "Th1/Th2 cytokine profiling assay (Ovalbumin restimulated spleen cells, CBA kit)", "format": "cell-based, Balb/c mice", "details": "peptide 10 micrograms per ml; Ovalbumin 10 micrograms/ml restimulation; 72 hours", "source_text": "The Balb/c mice (originated in 1923, it is a popular strain and is used in many different research disciplines. Also classified as an inbred from the production of 20 or more successive brother-sister matings, the Balb/c mouse is albino and small in size) were immunized on Days 1, 15, and 29 with Ovalbumin (Ovalbumin is the main protein found in egg white, commonly used to stimulate an immunological reaction in test animals) in PBS (5 micrograms/injection). On day 50, spleens of the mice were harvested (3 weeks after last boost with Ovalbumin). Cells were cultured (2×10^5/well in triplicate) and incubated with culture medium or test peptide—10 micrograms per ml—for 30 min. Thereafter, additional Ovalbumin was added to the cells at 10 micrograms/ml for in vitro restimulation of the cells. 72 hours later, cell supernatants were harvested and assayed using the Becton Dickinson Mouse Th1/Th2 Cytokine CBA Kit. This kit can be used to measure Interleukin-2 (IL-2), Interleukin-4 (IL-4), Interleukin-5 (IL-5), Interferon-γ (IFN-γ), and Tumor Necrosis Factor-α (TNF-α) protein levels in a single sample. The kit performance has been optimized for analysis of physiologically relevant concentrations ([…] levels) of specific cytokine proteins in tissue culture supernatants and serum samples."}, "A549 cells": {"system": "A549 cells", "assay": "Apoptosis prevention assay (C2 ceramide, Annexin-5)", "format": "cell-based, human", "details": "A549 cells pretreated 30 min with peptide 10 micrograms per ml, then C2 ceramide", "source_text": "Human A549 cells (carcinomic human alveolar basal epithelial cells) were utilized in the experiments employing the Annexin-5 apoptosis assay. Annexin-5 is a member of a highly conserved protein family that binds acidic phospholipids in a calcium-dependent manner. […] Phosphatidylserine is translocated from the inner side of the plasma membrane to the outer layer when cells undergo death by apoptosis or cell necrosis and serves as a signal by which cell destined for death are recognized by phagocytes. A549 cells were pretreated for 30 min with test peptide—10 micrograms per ml—followed by the exposure to C2 ceramide. Ceramide mediates cell apoptosis through the activation of the mitogen activating protein kinase (MAPK) and the stress activated kinase (JNK/SAPK). C2 ceramide is a synthetic, membrane soluble analog of ceramide."}, "[3]": {"assay": "Cytotoxicity in HCMV assay (CellTiter 96 cell viability)", "details": "human, MRC-5 cells (embryonal lung fibroblasts)", "procedure": "For cytotoxicity testing, MRC-5 cells were seeded at 2,500 cells/well in 96 well plates using growth medium. […] The following day, peptide was added and tested in duplicates. After a 6 days incubation period, cell viability was measured using CellTiter 96 Solution (Promega). Plates were incubated for additional 4 hours at 37° C. Adhesive plate sealers were used in place of lids, the sealed plates were inverted several times to mix the soluble formazan product and the plate was read spectrophotometrically at 490/560 nm with a Molecular Devices Vmax plate reader."}, "[4]": {"system": "Human Peripheral Blood Mononuclear Cells (PBMC)", "assay": "T cell proliferation assay (PHA, 3H-thymidine)", "format": "cell-based", "details": "peptide 10 micrograms per ml, 3H-thymidine incorporation", "method": "Human Peripheral Blood Mononuclear Cells (PBMC) were obtained from normal human donors. The T cell proliferation was induced by stimulation of the cells with the T cell mitogen phytohemagglutinin (PHA), either in the absence (positive proliferation control), or in the presence of test peptide—10 micrograms per ml—to examine their effects on the T cell proliferating response. 10^5/well PBMC were plated in 96-well microtiter plates and assayed in duplicate with the peptide. Cell cultures were incubated at 37° C. for 3 days in a 5% CO2 incubator and were thereafter pulsed with 1 microCi/well ^3H-thymidine for additional 12 hours of culture. At the end of incubation time, the plates were harvested and the cells counted by liquid scintillation for the incorporation of ^3H-thymidine as a measure of T cell proliferation."}},
  "note": "Non-standard residues stand in square brackets, D forms with d. Residues, ends and D or L forms follow the SMILES beside them.",
  "data": [
    {"smiles": "CC(C)C[C@H](NC(=O)[C@H](CC(C)C)NC(=O)[C@@H](Cc1c[nH]c2ccccc12)NC(=O)[C@H](Cc1ccccc1)NC(=O)[C@@H](Cc1c[nH]c2ccccc12)NC(=O)[C@H](CCC(N)=O)NC(=O)[C@H](CCC(N)=O)NC(=O)[C@@H]1CCCN1C(=O)[C@H](CCCCN)NC(=O)[C@@H]1CCCN1C(=O)[C@@H](CCCNC(=N)N)NC(=O)[C@@H]1CCCN1C(=O)CNC(=O)[C@H](CC(C)C)NC(=O)[C@H](CC(C)C)NC(=O)[C@H](Cc1ccc(O)cc1)NC(=O)CNC(=O)[C@H](C)NC(=O)[C@H](CO)NC(=O)[C@H](CC(N)=O)NC(=O)[C@H](CC(C)C)NC(=O)[C@@H](NC(=O)[C@H](Cc1c[nH]c2ccccc12)NC(=O)CN)[C@@H](C)O)C(N)=O", "note": "[Spantide-I, Gly-Trp-Thr-Leu-Asn-Ser-Ala-Gly-Tyr-Leu-Leu-Gly-Pro-D-Arg-Pro-Lys-Pro-Gln-Gln-D-Trp-Phe-D-Trp-Leu-Leu-NH2] (H-GWTLNSAGYLLGP[dR]PKPQQ[dW]F[dW]LL-NH2)", "values": [
      {"measurement": "% inhibition of HBV replication in HEP G2 cells", "setting": "[1]", "result": 14.1, "unit": "%"},
      {"measurement": "% of control phagocytosis", "setting": "RAW 264.7 cells", "result": 102.9, "unit": "%"},
      {"measurement": "% inhibition of migration", "setting": "[2]", "result": "−25", "unit": "%"},
      {"measurement": "IFNγ spleen cells; TH1 response (% of control)", "setting": "spleen cells", "result": "43.1 % of control"},
      {"measurement": "IL-2 spleen cells (% of control)", "setting": "spleen cells", "result": "25.9 % of control"},
      {"measurement": "IL-4 spleen cells; TH2 response (% of control)", "setting": "spleen cells", "result": "40.5 % of control"},
      {"measurement": "IL-5 spleen cells; TH2 response (% of control)", "setting": "spleen cells", "result": "64.5 % of control"},
      {"measurement": "TNF-a spleen cells; TH1 response (% of control)", "setting": "spleen cells", "result": "61.9 % of control"},
      {"measurement": "% prevention of ceramide induced apoptosis", "setting": "A549 cells", "result": "−20.5", "unit": "%"},
      {"measurement": "viability at 144 h", "setting": "[3]", "result": 100, "unit": "%"},
      {"measurement": "% of PHA induced control", "setting": "[4]", "result": 96.3, "unit": "%"}
    ]}
  ]
}
